Read-outs that look alike come from different tables or passages of the source.
Test system: human PBMC
Test: TLR7/8 agonists induce cytokine release in human PBMC (ELISA of culture supernatant, 24 h)
Assay type: cell-based
Conditions: minimum effective concentration: lowest concentration inducing cytokine at least 2x negative control, tested 0.0152-100 μM
Experimental: Example 13. TLR7/8 agonists induce IFN-gamma and TNF-alpha release in human PBMC
The system is used to assess the cytokines release. Activity is based on the measurement of interferon-gamma (IFN-γ) and tumor necrosis factor-alpha (TNF-α) secreted into culture media.
Fresh human blood was diluted with the same volume of PBS, 15 mL Lymphoprep was added into a Sepmate tube, then 30 mL diluted blood was added on the top gently without disturbing the interface.
The Sepmate tube was centrifuged for 25 min at 1000×g at RT with brake off.
The buffy coat containing peripheral blood mononuclear cells (PBMCs) was collected from Sepmate tube and transferred into a new tube, and the cells were washed with 40 mL PBS twice and centrifuged at 350×g for 5 min.
PBMCs were resuspended in complete culture medium at a density of 2E6/mL.
The compounds are solubilized in dimethyl sulfoxide (DMSO) and diluted into indicated concentration with complete culture medium.
2*10^5 PBMCs (in 100 μL) were added to each well of 96-well flat bottom plate.
2× final concentration of 3-fold serial diluted compounds (in 100 μL) were added to indicated wells and final volume was 200 μL.
The plate was covered with sterile lids, mixed gently and then incubated for 24 h at 37° C./5% CO2 incubator.
Following incubation, the plates was centrifuged for 5 min. at 400×g. The cell-free culture Supernatant was removed into a non-sterile polypropylene plate. Samples are maintained at −80° C. until analysis. The samples were analyzed for TNF-α and IFN-γ by ELISA according to the direction.
TNF-α and IFN-α were analyzed by ELISA. IFN-α concentration was determined by ELISA using a Human IFN-α ELISA Kit from R&D Systems (Catalog #41100-2) and read on VICTOR Nivo™ from PerkinElmer. Results were expressed in pg/mL. TNF-α concentration was determined by ELISA using a Human TNF-alpha ELISA MAX™ Deluxe from BioLegend (Catalog #430205) and read on VICTOR Nivo™ from PerkinElmer. Results were expressed in pg/mL.
Specifically, the MEC of each compound (micromolar) was determined as the lowest concentration of the compound that induced a measured cytokine response at a level ([…]) that was at least 2× greater than that observed with the negative control wells.

[1] = read-out: MEC to induce cytokine: IFN-alpha
[2] = read-out: MEC to induce cytokine: TNF-alpha

| SMILES | minimal effective concentration [1] | minimal effective concentration [2] |
| --- | --- | --- |
| CCCCCCCCCCCCCCCCCNC(=O)C(=O)NCCCCOn1c(CCCC)nc2c(N)nc3ccccc3c21 [Example 1, N1-(4-((4-amino-2-butyl-1H-imidazo[4,5-c]quinolin-1-yl)oxy)butyl)-N2-heptadecyloxalamide] | > 33.3 µM | 11.1 µM |
| CCCCCCCCCCCCCCCCCNc1c(NCCCCOn2c(CCCC)nc3c(N)nc4ccccc4c32)c(=O)c1=O [Example 2, 3-((4-((4-amino-2-butyl-1H-imidazo[4,5-c]quinolin-1-yl)oxy)butyl)amino)-4-(heptadecylamino)cyclobut-3-ene-1,2-dione] | 0.0152 µM | 0.0457 µM |
| CCCCCCCCCCCCCCCCN1CCC(C(=O)NCCCCOn2c(CCCC)nc3c(N)nc4ccccc4c32)CC1 [Example 3, N-(4-((4-amino-2-butyl-1H-imidazo[4,5-c]quinolin-1-yl)oxy)butyl)-1-hexadecylpiperidine-4-carboxamide] | 0.137 µM | 0.137 µM |
| CCCCCCCCCCCCCCCCCCN(CCCCOn1c(CCCC)nc2c(N)nc3ccccc3c21)CCCN(C)C [Example 5, N1-(4-((4-amino-2-butyl-1H-imidazo[4,5-c]quinolin-1-yl)oxy)butyl)-N3,N3-dimethyl-N1-octadecylpropane-1,3-diamine] | 1.23 µM | 11.1 µM |
| CCCCCCCCCCCCCCCCCNC(=O)C(=O)N(CCCCOn1c(CCCC)nc2c(N)nc3ccccc3c21)CCCN(C)C [Example 6, N1-(4-((4-amino-2-butyl-1H-imidazo[4,5-c]quinolin-1-yl)oxy)butyl)-N1-(3-(dimethylamino)propyl)-N2-heptadecyloxalamide] | > 100 µM | > 100 µM |
| CCCCCCCCCCCCCCCCCNc1c(N(CCCCOn2c(CCCC)nc3c(N)nc4ccccc4c32)CCCN(C)C)c(=O)c1=O [Example 7, 3-((4-((4-amino-2-butyl-1H-imidazo[4,5-c]quinolin-1-yl)oxy)butyl)(3-(dimethylamino)propyl)amino)-4-(heptadecylamino)cyclobut-3-ene-1,2-dione] | 0.0152 µM | 0.41 µM |
| CCCCCCCCCCCCCCCCCc1nc(CCCCOn2c(CCCC)nc3c(N)nc4ccccc4c32)no1 [Example 10, 2-butyl-1-(4-(5-heptadecyl-1,2,4-oxadiazol-3-yl)butoxy)-1H-imidazo[4,5-c]quinolin-4-amine] | 11.1 µM | 3.7 µM |
| CCCCCCCCCCCCCCCCCc1noc(CCCCOn2c(CCCC)nc3c(N)nc4ccccc4c32)n1 [Example 11, 2-butyl-1-(4-(3-heptadecyl-1,2,4-oxadiazol-5-yl)butoxy)-1H-imidazo[4,5-c]quinolin-4-amine] | 11.1 µM | 33.3 µM |
| CCCCCCCCCCCCCCCCCN(CCCN(C)C)c1c(NCCCCOn2c(CCCC)nc3c(N)nc4ccccc4c32)c(=O)c1=O [Example 12, 3-(4-(4-amino-2-butyl-1H-imidazo[4,5-c]quinolin-1-yloxy)butylamino)-4-((3-(dimethylamino)propyl)(heptadecyl)amino)cyclobut-3-ene-1,2-dione] | 0.0152 µM | 0.41 µM |

— patent US10954239B2, “Imidazoquinoline amine derivatives, pharmaceutical compositions and therapeutic methods thereof” (CanWell Biotech Limited, priority 2019, dated 2021)
